How the values were obtained:
[1] = no reference given; cited from earlier work
[2] = tested on: NDUFV2 cleavage; test: Ca2+-induced cleavage of complex I subunit NDUFV2 in isolated mitochondria; design: species or system rabbit; conditions: 10 μM pretreatment, then Ca2+ 1 μM for 5 min
[3] = biological target: T1, purified calpain 1 (Homo sapiens, UniProt P07384); test: Calpain 1 activity, sLLVY-AMC hydrolysis with purified calpain 1; type: biochemical
T1 sequence (P07384 1-714): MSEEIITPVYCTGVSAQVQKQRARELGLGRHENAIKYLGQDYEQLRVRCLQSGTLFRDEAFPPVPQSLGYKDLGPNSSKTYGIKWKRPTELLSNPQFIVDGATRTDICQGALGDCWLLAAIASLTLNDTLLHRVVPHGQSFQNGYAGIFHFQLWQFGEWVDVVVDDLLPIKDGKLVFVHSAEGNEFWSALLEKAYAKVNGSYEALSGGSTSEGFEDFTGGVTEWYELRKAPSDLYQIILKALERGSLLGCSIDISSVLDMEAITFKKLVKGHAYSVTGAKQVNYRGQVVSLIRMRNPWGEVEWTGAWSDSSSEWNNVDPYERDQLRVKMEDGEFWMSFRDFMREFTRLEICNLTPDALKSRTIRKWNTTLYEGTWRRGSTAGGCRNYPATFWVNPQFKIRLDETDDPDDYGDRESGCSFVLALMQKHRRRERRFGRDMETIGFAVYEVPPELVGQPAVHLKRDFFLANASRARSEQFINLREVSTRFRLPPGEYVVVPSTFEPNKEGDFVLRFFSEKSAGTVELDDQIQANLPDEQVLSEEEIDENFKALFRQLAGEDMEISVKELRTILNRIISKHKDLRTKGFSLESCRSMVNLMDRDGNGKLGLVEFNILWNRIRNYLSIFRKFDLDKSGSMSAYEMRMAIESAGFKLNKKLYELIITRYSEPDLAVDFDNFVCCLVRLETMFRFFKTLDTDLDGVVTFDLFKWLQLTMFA
T1 sequence (P04632 1-268 partner): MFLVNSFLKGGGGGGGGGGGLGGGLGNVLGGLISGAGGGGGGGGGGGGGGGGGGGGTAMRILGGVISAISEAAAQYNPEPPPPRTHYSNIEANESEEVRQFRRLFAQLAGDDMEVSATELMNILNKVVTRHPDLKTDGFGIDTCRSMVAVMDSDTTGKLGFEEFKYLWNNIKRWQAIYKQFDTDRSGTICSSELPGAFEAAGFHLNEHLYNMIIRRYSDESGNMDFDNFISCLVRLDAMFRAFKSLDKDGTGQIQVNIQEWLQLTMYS

[4] = tested on: state 3 respiration of renal cortical mitochondria; test: Ca2+-induced attenuation of state 3 respiration in isolated mitochondria; design: species or system rabbit; conditions: 10 μM pretreatment, then Ca2+ 1 μM for 5 min
[5] = biological target: T2, calpain 2 (Sus scrofa, UniProt A6YNL5); test: Calpain 2 inhibition; type: biochemical, porcine
T2 sequence (A6YNL5 1-700): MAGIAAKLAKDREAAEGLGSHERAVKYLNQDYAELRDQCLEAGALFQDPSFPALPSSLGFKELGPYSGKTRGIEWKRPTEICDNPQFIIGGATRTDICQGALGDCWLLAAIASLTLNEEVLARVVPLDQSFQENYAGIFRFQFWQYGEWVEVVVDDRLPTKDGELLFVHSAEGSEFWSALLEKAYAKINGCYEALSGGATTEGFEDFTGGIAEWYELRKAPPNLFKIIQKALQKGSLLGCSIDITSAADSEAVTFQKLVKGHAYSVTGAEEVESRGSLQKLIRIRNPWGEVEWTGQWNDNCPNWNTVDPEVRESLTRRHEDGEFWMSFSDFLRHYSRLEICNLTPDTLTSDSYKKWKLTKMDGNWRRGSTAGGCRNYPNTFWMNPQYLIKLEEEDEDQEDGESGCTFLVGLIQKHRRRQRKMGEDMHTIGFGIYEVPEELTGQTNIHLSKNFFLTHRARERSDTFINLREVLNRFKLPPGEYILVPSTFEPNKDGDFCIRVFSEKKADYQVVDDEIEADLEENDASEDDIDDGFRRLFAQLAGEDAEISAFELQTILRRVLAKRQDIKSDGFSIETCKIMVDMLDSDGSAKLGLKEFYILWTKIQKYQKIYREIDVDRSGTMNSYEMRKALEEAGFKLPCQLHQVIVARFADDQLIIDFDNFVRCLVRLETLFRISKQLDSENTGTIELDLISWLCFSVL
T2 sequence (P04574 1-266 partner): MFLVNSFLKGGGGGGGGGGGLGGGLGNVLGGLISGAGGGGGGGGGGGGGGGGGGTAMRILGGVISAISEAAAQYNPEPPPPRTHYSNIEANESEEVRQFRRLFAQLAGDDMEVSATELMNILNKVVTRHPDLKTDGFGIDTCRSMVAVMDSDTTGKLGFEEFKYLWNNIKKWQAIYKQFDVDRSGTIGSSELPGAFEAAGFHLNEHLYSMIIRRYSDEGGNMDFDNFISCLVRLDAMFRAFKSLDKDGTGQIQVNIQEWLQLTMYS

[6] = tested on: calpain; conditions: cited from earlier work

Structure (SMILES) | thiol pKa [1] | selectivity for calpain over cathepsin B [6] [fold] | also measured
CCS [ethanethiol] | 10.61 | – | –
COc1ccc(S)cc1 [methoxythiophenol] | 6.8 | – | –
CCCC[C@@H](C=O)NC(=O)[C@H](CC(C)C)NC(=O)OCc1ccccc1 [Calpeptin, Z-Leu-Nle-CHO] | – | – | Ca2+-induced cleavage of complex I subunit NDUFV2 [2]: blocked; IC50 [3]: ~0.04 µM; Ca2+-induced attenuation of state 3 respiration [4]: blocked; IC50 [5]: ~0.06 µM
O=C(O)/C(S)=C/c1ccc(I)cc1 [PD150606] | – | 600 | –
O=C(O)/C(S)=C/c1c[nH]c2ccc(F)cc12 [PD151746] | – | 600 | –

— paper PMC2801808 (Journal of medicinal chemistry, 2009)
